In patent US12509460B2 (Skyhawk Therapeutics, Inc., priority 2019, dated 2025):
Read-outs that look alike come from different tables or passages of the source.

What was measured:
[1] = tested on: SMN protein in spinal muscular atrophy (SMA) patient fibroblasts (GM03813, Coriell); experiment: SMN protein assay, Mesoscale Discovery (MSD); assay type: cell-based, human; conditions: for EC50: read-out: SMN2 protein EC50
Summary of the method: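 SMA patient fibroblasts (GM03813) seeded at 7000 cells/well and exposed to compound at 2.5 μM to 0.6 nM for 48 hours. Lysates assayed for SMN by MSD immunoassay, with absolute SMN amount calculated from a per-plate SMN standard curve (1 μg/ml to 19.5 pg/ml).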

MDR1 (P-gp) = experiment: in vitro; conditions: dog, MDCK-MDR1, pH 7.4
MDR1 = experiment: in vitro; conditions: dog, MDCK-MDR1, pH 7.4
[2] = tested on: MDR1-MDCK cell monolayers; conditions: dog, MDCK-MDR1, 120 min, 5 μM, pH 7.4
[3] = tested on: mHTT protein in GM04724 (CAG 70/20) Huntington's disease patient lymphoblast cells; experiment: mHTT protein assay, 2B7-MW1 assay via Mesoscale Discovery (MSD); assay type: cell-based, human
Summary of the method: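 Patient lymphoblasts treated 48 h with compound from 10 μM to 0.6 nM. mHTT quantified by MSD 2B7-MW1 immunoassay, whose signal depends on polyQ expansion and HTT size. Viability measured on a replicate plate by CellTiter Glo.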

[4] = SMA patient fibroblasts GM03813, 48 hours, MSD
[5] = GM04724 Huntington's disease patient lymphoblasts
[6] = SMA patient fibroblasts (GM03813), 48 hours
[7] = GM04724 (CAG 70/20) Huntington's disease patient lymphoblasts

SMILES | SMN2 protein EC50 [1, 4] | Papp A→B at 120 min, 5 μM (MDR1 (P-gp)) [×10⁻⁶ cm/s] | Papp B→A at 120 min, 5 μM (MDR1 (P-gp)) [×10⁻⁶ cm/s] | efflux ratio at 120 min, 5 μM (MDR1) | MDCK-MDR1: % Recov A-B [2] [%] | MDCK-MDR1: % Recov B-A [2] [%] | mHTT protein EC50 [3, 5] | EC50 [1, 4] [nM] | SMN2 protein EC50 [1, 6] | mHTT protein EC50 [3, 7] | EC50 [3, 5] [nM] | EC50 [1, 6] [nM]
CN(c1ccc(-c2cc3ccn(C)c(=O)c3s2)nn1)[C@@H]1C[C@H]2CC[C@H](N2)[C@@H]1F (single isomer, unassigned) [Compound 67A] | E (501 ≤ E ≤ 10.000) | 0.42 | 37.9 | 90 | 94 | 99 | E (501 ≤ E ≤ 10.000) | – | – | – | – | –
CN(c1ccc(-c2cc3occc(=O)c3cc2O)nn1)[C@H]1C[C@@H]2CC[C@H]([C@H]1F)N2C (single isomer, unassigned) [Compound 94B] | – | 4.47 | 41.2 | 9 | 73 | 83 | E (501 ≤ E ≤ 10.000) | 101 to 500 | – | – | – | –
CN(c1ccc(-c2cn3c(=O)ccnc3cc2O)nn1)[C@@H]1C[C@H]2CC[C@@H]([C@@H]1F)N2C (single isomer, unassigned) [Compound 95A] | E (501 ≤ E ≤ 10.000) | 0.15 | 8.79 | 59 | 85 | 115 | E (501 ≤ E ≤ 10.000) | – | – | – | – | –
CN(c1ccc(-c2ccc(C3CC3)cc2O)nn1)[C@H]1C[C@@H]2CC[C@@H](N2)[C@H]1F (single isomer, unassigned) [Compound 31B] | E (501 ≤ E ≤ 10.000) | 7.08 | 27 | 4 | 43 | 74 | E (501 ≤ E ≤ 10.000) | – | – | – | – | –
CN(c1ccc(-c2cc3oc(C(=O)N4CCC4)cc3cc2O)nn1)[C@@H]1C[C@H]2CC[C@@H]([C@@H]1F)N2C [Compound 107A, azetidin-1-yl(6-(6-(((1S,2S,3R,5R)-2-fluoro-8-methyl-8-azabicyclo[3.2.1]octan-3-yl)(methyl)amino)pyridazin-3-yl)-5-hydroxybenzofuran-2-yl)methanone] | – | 1.27 | 55.1 | 43 | 80 | 82 | – | – | E (501 ≤ E ≤ 10.000) | E (501 ≤ E ≤ 10.000) | – | –
CN(c1ccc(-c2cc3ncn(CC(F)(F)F)c(=O)c3cc2O)nn1)[C@H]1C[C@@H]2CC(F)(F)[C@H](C1)N2C (single isomer, unassigned) [Compound 110B] | – | 11.7 | 47.4 | 4 | 86 | 93 | – | – | E (501 ≤ E ≤ 10.000) | E (501 ≤ E ≤ 10.000) | – | –
CN1[C@H]2CC[C@@H]1[C@@H](F)[C@@H](N(c1ccc(-c3cc4oc(C(=O)N5CCC5)cc4cc3O)nn1)C1CC1)C2 (single isomer, unassigned) [Compound 92B] | – | 1.16 | 52.3 | 45 | 94 | 105 | – | 101 to 500 | – | – | 101 to 500 | –
CN(C)C(=O)c1cc2cc(O)c(-c3ccc(N(C4CC4)[C@@H]4C[C@H]5CC[C@H](N5)[C@@H]4F)nn3)cc2o1 [Compound 86A, 6-(6-(cyclopropyl((1S,2S,3R,5R)-2-fluoro-8-azabicyclo[3.2.1]octan-3-yl)amino)pyridazin-3-yl)-5-hydroxy-N,N-dimethylbenzofuran-2-carboxamide] | E (501 ≤ E ≤ 10.000) | 1.05 | 62.5 | 60 | 93 | 90 | E (501 ≤ E ≤ 10.000) | – | – | – | – | –
CCc1cn(-c2ccc(-c3ccc(N(C)[C@H]4C[C@@H]5CC(F)(F)[C@H](C4)N5)nn3)c(O)c2)cn1 [Compound 18B, 2-(6-(((1R,3S,5S)-6,6-difluoro-8-azabicyclo[3.2.1]octan-3-yl)(methyl)amino)pyridazin-3-yl)-5-(4-ethyl-1H-imidazol-1-yl)phenol] | E (501 ≤ E ≤ 10.000) | 8.37 | 35.6 | 4 | 55 | 69 | – | – | – | – | 101 to 500 | –
CN(c1ccc(-c2ccc(Oc3nccn3C)cc2O)nn1)[C@H]1C[C@@H]2CC[C@@H](N2)[C@H]1F (single isomer, unassigned) [Compound 123B] | – | 0.66 | 58.7 | 89 | 92 | 102 | – | – | – | E (501 ≤ E ≤ 10.000) | – | 101 to 500
CN(c1ccc(-c2cc3cc[nH]c(=O)c3s2)nn1)[C@H]1C[C@@H]2CC[C@@H](N2)[C@H]1F (single isomer, unassigned) [Compound 66B] | E (501 ≤ E ≤ 10.000) | 0.07 | 4.64 | 68 | 98 | 98 | E (501 ≤ E ≤ 10.000) | – | – | – | – | –
CN(c1ccc(-c2cn3c(=O)ccnc3cc2O)nn1)[C@@H]1C[C@H]2CC[C@H](N2)[C@@H]1F (single isomer, unassigned) [Compound 82A] | – | 0.08 | 3.33 | 40 | 104 | 121 | E (501 ≤ E ≤ 10.000) | 101 to 500 | – | – | – | –
CN1[C@H]2CC[C@@H]1[C@@H](F)[C@@H](N(c1ccc(-c3cc4ncn(CC(F)(F)F)c(=O)c4cc3O)nn1)C1CC1)C2 (single isomer, unassigned) [Compound 111B] | – | 0.66 | 35.9 | 54 | 74 | 56 | – | – | E (501 ≤ E ≤ 10.000) | E (501 ≤ E ≤ 10.000) | – | –
CN(c1ccc(-c2ccc(C3CC3)cc2O)nn1)[C@@H]1C[C@H]2CC[C@H](N2)[C@@H]1F (single isomer, unassigned) [Compound 31A] | E (501 ≤ E ≤ 10.000) | 8.77 | 31.3 | 4 | 45 | 66 | E (501 ≤ E ≤ 10.000) | – | – | – | – | –
CN(c1ccc(-c2ccccc2O)nn1)[C@H]1C[C@@H]2CC[C@@H](N2)[C@H]1F (single isomer, unassigned) [Compound 119B] | – | 6.13 | 58.2 | 9 | 93 | 95 | – | – | E (501 ≤ E ≤ 10.000) | E (501 ≤ E ≤ 10.000) | – | –
CN(c1ccc(-c2cc(F)c(-n3ccnn3)cc2O)nn1)[C@@H]1C[C@H]2CC[C@@H]([C@@H]1F)N2C [Compound 103A, 4-fluoro-2-(6-(((1S,2S,3R,5R)-2-fluoro-8-methyl-8-azabicyclo[3.2.1]octan-3-yl)(methyl)amino)pyridazin-3-yl)-5-(1H-1,2,3-triazol-1-yl)phenol] | – | 13.9 | 60.3 | 4 | 86 | 91 | – | – | E (501 ≤ E ≤ 10.000) | E (501 ≤ E ≤ 10.000) | – | –
